Reference: patent US11161830B2, “4-pyridone compound or salt thereof, and pharmaceutical composition and formulation including same” (priority 2017, dated 2021)
pIC50: −log10 of the molar value. Like-named read-outs stand apart in the source and are kept apart here.

How the values were obtained:
HBV (genotype AeUS) = assay: Test Example 2-1: anti-HBV assay in PXB-cells (fresh human hepatocytes); assay type: cell-based, hepatitis B virus; settings: PXB-cells infected with HBV genotype AeUS, culture supernatant on day 32 post infection
Method: Using fresh human hepatocytes (PXB-cells, manufactured by PhenixBio Co., Ltd.) collected from a PXB mouse (a chimeric mouse with human hepatocytes), the anti-HBV activity of the representative compounds was evaluated in the following procedure.
(§1) The following was used as a medium:
DMEM (manufactured by Sigma)+0.25 μg/mL insulin (manufactured by Wako)+1% penicillin/streptomycin. (manufactured by Sigma)+20 mmol/L HEPES (manufactured by Sigma)+15 μg/mL L-proline (manufactured by Sigma)+50 nmol/L dexamethasone (manufactured by Sigma)+5 ng/mL EGF (manufactured by Peprotech)+0.1 mmol/L ascorbic acid 2-phosphate (manufactured by Wako)+10% FBS+2% DMSO
Each of the test compounds) was further added to the medium to prepare a test solution containing each of the test compounds at various concentrations.
(1) PXB-cells seeded at a seeding density of 2.1×10^5 cells/cm^2 in a 96-well microliter plate were incubated in a 5% CO2 incubator at 37° C. until a day on which the cells were infected.
(2) HBV (genotype AeUS) derived from a PXB mouse serum was suspended in the medium containing 4% PEG-8000, and added to the plate of (1) at about 10 copies/cell such that the PXB cells were infected (100 μL/well), and the plate was incubated in a 5% CO2 incubator at 37° C. for 1 day.
(3) The culture supernatant on day 1 post infection was removed and the cells were washed three times with DMEM containing 10% FBS and 1% penicillin/streptomycin. Then, the medium was added to the plate (100 μL/well) and the plate was incubated in a 5% CO2 incubator at 37° C. for 1 day.
(4) The culture supernatant on day 2 post infection was removed and the cells were washed three times with DMEM containing 10% FBS and 1% penicillin/streptomycin. Then, the medium was added to the plate (100 μL/well) and the plate was incubated in a 5% CO2 incubator at 37° C. for 5 days.
(5) The culture supernatant on day 7 post infection was removed, the medium was added to the plate (100 μL/well), and the plate was incubated in a 5% CO2 incubator at 37° C. for 5 days.
(6) The culture supernatant on day 12 post infection was removed, the medium was added to the plate (100 μL/well), and the plate was incubated in a 5% CO2 incubator at 37° C. for 5 days.
(§2) (7) The culture supernatant on day 17 post infection was removed, the test solution was added to the plate (100 μL/well), and the plate was incubated in a 5% CO2 incubator at 37° C. for 5 days. As a control without the compound added, the medium was added to the plate (100 μL/well) and the plate was incubated in a 5% CO2 incubator at 37° C. for 5 days.
as §2, with “(8)” for “(7)”, “22” for “17”
as §2, with “(9)” for “(7)”, “27” for “17”
(10) The culture supernatant on day 32 post infection was collected.
(11) The collected culture supernatant on day 32 post infection was purified with a QIAamp (registered trademark) DNA Blood Mini Kit (manufactured by QIAGEN). The amount of HBV-DNA in the obtained solution was absolutely quantified by a real-time PCR method. In addition, the amount of HBsAg in the culture supernatant was absolutely quantified by chemiluminescent enzyme immunoassay using Lumipulse (registered trademark) HBsAg-HQ (manufactured by Fujirebio Inc.). A relative viral load (%) with respect to a control without the compound added was each calculated. […]

HBV = assay: Test Example 1-1: anti-HBV assay in HepG2.2.15 cells (test solution 200 μL/well); assay type: cell-based, hepatitis B virus; settings: culture supernatant
Method: Using HepG2.2.15 cells (Proc. Natl. Acad. Sci. USA, 84, 1005-1009, 1987) which have an HBV genome introduced into a hepatoblastoma cell line, HepG2, and persistently produce a virus, the anti-HBV activity of the representative compounds was evaluated in the following procedure.
as §1
DMEM/F-12, GlutaMAX (manufactured by Invitrogen)+5 μg/mL insulin (manufactured by Wako)+1% penicillin/streptomycin (manufactured by Sigma)+10 mmol/L HEPES (manufactured by Sigma)+50 μmol/L hydrocortisone (manufactured by Sigma)+10% FBS
A mixture of a test compound with dimethyl sulfoxide (DMSO) was further added to the medium to obtain a final concentration of DMSO of 0.25% (v/v), and thus, test solutions containing the test compound at various concentrations were prepared. In addition, a test solution obtained by adding DMSO alone to the medium to obtain a final concentration of 0.25% (v/v) was prepared as a control without addition of a drug.
(1) The HepG2.2.15 cells were suspended in the medium to prepare a. HepG2.2.15 cell suspension at 4×10^5 cells/mL. The suspension was seeded in a 96-well microtiter plate (100 μL/well) and the plate was incubated in a 5% CO2 incubator at 37° C. for 2 days.
(2) The culture supernatant was removed and the cells were washed twice with PBS (−) (100 μL/well).
(3) The test solution (200 μL/well) was added to the plate of (2) and the plate was incubated in a 5% CO2 incubator at 37° C. for 4 days.
(4) The culture supernatant was removed, the test solution (200 μL/well) was added again to the plate, and the plate was incubated in a 5% CO2 incubator at 37° C. for 3 days.
(5) The culture supernatant was collected and treated with a mixture of Buffer AL (manufactured by QIAGEN) and Proteinase K (manufactured by Invitrogen). The amount of DNA of HBV (HBV-DNA) in the obtained solution was absolutely quantified by a real-time PCR method. In addition, HBsAg (hepatitis B surface antigen) in the culture supernatant was absolutely quantified by chemiluminescent enzyme immunoassay using Lumipulse (registered trademark) HBsAg-HQ (manufactured by Fujirebio Inc.). The relative viral load (%) of a well with the compound added to a well without the compound added was calculated. An IC50 of the compound was calculated using a FORECAST function (linear regression method) of Microsoft Office Excel 2007 by plotting the logarithm of the concentration against the relative viral load as a real number.
The IC50 of HBV-DNA was defined as a concentration (or a logarithm dilution of the culture supernatant) of the compound, in which the amount of HBV-DNA is reduced by 50% as compared a control without the compound added.
In addition, the IC50 of HBsAg was defined as a concentration (or a logarithm dilution of the culture supernatant) of the compound, in which the amount of HBsAg is reduced by 50% as compared a control without the compound added.

[1] = Hepatitis B virus, Hepatocyte, read-out: IC50 HBV-DNA
[2] = Hepatitis B virus, Hepatocyte, read-out: IC50 HBsAg
[3] = Hepatitis B virus, read-out: IC50 HBV-DNA
[4] = Hepatitis B virus, read-out: IC50 HBsAg

Compound	pIC50 (HBV (genotype AeUS); [1])	pIC50 (HBV (genotype AeUS); [2])	pIC50 (HBV; [3])	pIC50 (HBV; [4])	pIC50 (HBV (genotype AeUS); read-out: IC50 HBV-DNA)	pIC50 (HBV (genotype AeUS); read-out: IC50 HBsAg)	pIC50 (HBV; read-out: IC50 HBV-DNA)	pIC50 (HBV; read-out: IC50 HBsAg)
COC[C@H]1CCCN1c1nc2ccc(-n3cc(C(=O)O)c(=O)cc3-c3ccc(N4CCCC4)cc3)cc2s1 [Example 3-10, (R)-1-(2-(2-(methoxymethyl)pyrrolidin-1-yl)benzo[d]thiazol-6-yl)-4-oxo-6-(4-(pyrrolidin-1-yl)phenyl)-1,4-dihydropyridine-3-carboxylic acid]	7.82	7.41	8.55	8.89	–	–	–	–
1-(2-morpholinebenzo[d]thiazol-6-yl)-4-oxo-6-(4-(pyrrolidin-1-yl)phenyl)-1,4-dihydropyridine-3-carboxylic acid [Example 3-4]	–	–	–	–	7.66	7.85	8.26	8.23
COCCO[C@@H]1CCN(c2ccc(-c3cc(=O)c(C(=O)O)cn3-c3ccc4nc(C)sc4c3)cc2)C1 [Example 9, (R)-6-(4-(3-(2-Methoxyethoxy)pyrrolidin-1-yl)phenyl)-1-(2-methylbenzo[d]thiazol-6-yl)-4-oxo-1,4-dihydropyridine-3-carboxylic acid]	6.24	6.48	7.26	7.62	–	–	–	–
O=C(O)c1cn(-c2ccc3nc(N4CCOCC4)sc3c2)c(-c2ccc(N3CCCC3)c(F)c2)cc1=O [Example 7, 6-(3-Fluoro-4-(pyrrolidin-1-yl)phenyl)-1-(2-morpholinobenzo[d]thiazol-6-yl)-4-oxo-1,4-dihydropyridine-3-carboxylic acid]	7.92	7.39	8.85	8.51	–	–	–	–
Cc1nc2ccc(-n3cc(C(=O)O)c(=O)cc3-c3ccc(N4CCCC4)c(C#N)c3)cc2s1 [Example 16, 6-(3-Cyano-4-(pyrrolidin-1-yl)phenyl)-1-(2-methylbenzo[d]thiazol-6-yl)-4-oxo-1,4-dihydropyridine-3-carboxylic acid]	6.33	6.72	7.74	7.82	–	–	–	–
COCCN1CCN(c2nc3ccc(-n4cc(C(=O)O)c(=O)cc4-c4ccc(N5CCCC5)cc4)cc3s2)CC1 [Example 3-14, 1-(2-(4-(2-methoxyethyl)piperazin-1-yl)benzo[d]thiazol-6-yl)-4-oxo-6-(4-(pyrrolidin-1-yl)phenyl)-1,4-dihydropyridine-3-carboxylic acid]	7.62	7.05	–	–	–	–	–	–
COCCN(CCOC)c1nc2ccc(-n3cc(C(=O)O)c(=O)cc3-c3ccc(N4CC[C@@H](OC)C4)cc3)cc2s1 [Example 10-3]	–	–	–	–	7.33	7.25	–	–
O=C(O)c1cn(-c2ccc3ncsc3c2)c(-c2ccc(N3CCCC3)cc2)cc1=O [Example 3-1, 1-(benzo[d]thiazol-6-yl)-4-oxo-6-(4-(pyrrolidin-1-yl)phenyl)-1,4-dihydropyridine-3-carboxylic acid]	6.64	6.27	7.57	7.68	–	–	–	–
Cc1nc2ccc(-n3cc(C(=O)O)c(=O)cc3-c3ccc(N4CCCC4)cc3)cc2s1 [Example 3-2, 1-(2-methylbenzo[d]thiazol-6-yl)-4-oxo-6-(4-(pyrrolidin-1-yl)phenyl)-1,4-dihydropyridine-3-carboxylic acid]	6.33	6.82	8.05	8.51	–	–	–	–
COCCN(CCOC)c1nc2ccc(-n3cc(C(=O)O)c(=O)cc3-c3ccc(N4CC[C@@H](OC)C4)c(Cl)c3)cc2s1 [Example 12-1, (R)-1-(2-(bis(2-methoxyethyl)amino)benzo[d]thiazol-6-yl)-6-(3-chloro-4-(3-methoxypyrrolidin-1-yl)phenyl)-4-oxo-1,4-dihydropyridine-3-carboxylic acid]	> 8.10	7.96	–	–	–	–	–	–
CCN1CCN(c2nc3ccc(-n4cc(C(=O)O)c(=O)cc4-c4ccc(N5CC[C@@H](OC)C5)cc4)cc3s2)CC1 [Example 10-4, (R)-1-(2-(4-ethylpiperazin-1-yl)benzo[d]thiazol-6-yl)-6-(4-(3-methoxypyrrolidin-1-yl)phenyl)-4-oxo-1,4-dihydropyridine-3-carboxylic acid]	7.21	7.11	–	–	–	–	–	–
COCCN1CCN(c2nc3ccc(-n4cc(C(=O)O)c(=O)cc4-c4ccc(N5CC[C@@H](OC)C5)c(Cl)c4)cc3s2)CC1 [Example 12-2, (R)-6-(3-chloro-4-(3-methoxypyrrolidin-1-yl)phenyl)-1-(2-(4-(2-methoxyethyl)piperazin-1-yl)benzo[d]thiazol-6-yl)-4-oxo-1,4-dihydropyridine-3-carboxylic acid]	7.55	7.38	–	–	–	–	–	–
COC[C@H]1CCCN1c1nc2ccc(-n3cc(C(=O)O)c(=O)cc3-c3ccc(N4CCCC4)c(Cl)c3)cc2s1 [Example 6-3, (R)-6-(3-chloro-4-(pyrrolidin-1-yl)phenyl)-1-(2-(2-(methoxymethyl)pyrrolidin-1-yl)benzo[d]thiazol-6-yl)-4-oxo-1,4-dihydropyridine-3-carboxylic acid]	7.52	7.24	–	–	–	–	–	–
